Measurements published in patent US20250380696A1, “METHOD FOR CONTROLLING UNDESIRED PLANTS AND PROMOTING GROWTH OF USEFUL PLANTS” (ISHIHARA SANGYO KAISHA, LTD., priority 2022, published 2025).

Assays:
Assay type in all cases: in vivo
[1] = system: Italian ryegrass (Lolium multiflorum); assay: (1) Herbicidal effect test, pot, spray at 2.3 to 3.0 leaf stage; details: 6th day after spraying
Description: (§1) Upland soil was put in a 1/1,000,000 hectare pot, and seeds of Italian ryegrass (Lolium multiflorum) were sown. When the Italian ryegrass reached 2.3 to 3.0 leaf stage, a water-based suspension containing tiafenacil as the active ingredient, prepared by a conventional method for preparing a water-based suspension, and an emulsifiable concentrate containing S-metolachlor as the active ingredient (tradename: Dual Gold, manufactured by Syngenta), were diluted with water (in an amount corresponding to 200 liter per hectare) containing 0.5 vol % of an agricultural spreader (tradename: Destiny HC, manufactured by Winfield Solutions, LLC.) and sprayed by a small spray gun (model: W-101-132G, manufactured by ANEST IWATA Corporation). On the 6th day after spraying, the state of growth of the Italian ryegrass was visually observed, and the growth inhibition rate (%) was obtained based on the following standards and the results are shown in Table 1.
Further, the expected value of the growth inhibition rate (%) was calculated in accordance with the following Colby's formula (S. R. Colby, “Weeds”, vol. 15 ([…]), p. 20-22) and the results are also shown in Table 1.
(§2) [formula] • X: growth inhibition rate when treated with α (g/ha) of compound A, • Y: growth inhibition rate when treated with β (g/ha) of compound B, • E: growth inhibition rate expected when treated with α (g/ha) of compound A and β (g/ha) of compound B (expected value).
That is, when the growth inhibition rate of the composition of the present invention is higher than E (expected value of growth inhibition rate) calculated by the above formula, the combination can be regarded as having a synergistic effect.

[2] = system: Italian ryegrass (Lolium multiflorum); assay: (2) Herbicidal effect test, pot, spray at 2.5 to 3.0 leaf stage; details: 16th day after spraying
Source text: as §2
as §1, with “2.5” for “2.3”, “16th” for “6th”, “in accordance with” for “based on”, “evaluation” for “following”, “standards described in the above (1) herbicidal effect test,” for “standards”, “2. Further, the expected value of the growth inhibition rate (%) was calculated in accordance with the Colby's formula described in the above (1) herbicidal effect test, and the results are also shown in Table 2.” for “1.”

[3] = system: forage corn (cultivar: SNOW DENT OTOHA); assay: (20) Plant growth promotion effect test (corn), Italian ryegrass sown; details: 33rd day after the sowing, above-ground part
Description: Upland soil was put in a 1/1,000,000 hectare pot, and seeds of Italian ryegrass (Lolium multiflorum) were sown. When the Italian ryegrass reached 2.7 to 3.0 leaf stage, a water-based suspension containing tiafenacil as the active ingredient, prepared by a conventional method for preparing a water-based suspension, and an emulsifiable concentrate containing dimethenamid-P as the active ingredient (tradename: Fieldstar P emulsifiable concentrate, manufactured by BASF) were diluted with water (in an amount corresponding to 200 liter per hectare) containing 0.5 vol % of an agricultural spreader (tradename: Destiny HC, manufactured by Winfield Solutions, LLC.) and sprayed by a small spray gun (model: W-101-132G, manufactured by ANEST IWATA Corporation). Seeds of forage corn (cultivar: SNOW DENT OTOHA, manufactured by SNOW BRAND SEED Co., Ltd.) were sown in the pot after spraying. On the 33rd day after the sowing, the above-ground part of the forage corn was reaped, and its weight was measured to obtain the raw weight.

[4] = system: goosegrass (Eleusine indica); assay: (11) Herbicidal effect test, pot, spray at 7.0 to 8.3 leaf stage; details: 3rd day after spraying
Source text: as §2
Upland soil was put in a 1/1,000,000 hectare pot, and seeds of goosegrass (Eleusine indica) were sown. When goosegrass reached 7.0 to 8.3 leaf stage, a water-based suspension containing tiafenacil as the active ingredient, prepared by a conventional method for preparing a water-based suspension, and a wettable powder containing tri-allate as the active ingredient, prepared by a conventional method for preparing a wettable powder, an emulsifiable concentrate containing pethoxamid as the active ingredient (tradename: Successor 600, manufactured by Stähler Suisse SA) or an emulsifiable concentrate containing dimethenamid-P as the active ingredient (tradename: Fieldstar P emulsifiable concentrate, manufactured by BASF) were diluted with water (in an amount corresponding to 200 liter per hectare) containing 0.5 vol % of an agricultural spreader (tradename: Destiny HC, manufactured by Winfield Solutions, LLC.) and sprayed by a small spray gun (model: W-101-132G, manufactured by ANEST IWATA Corporation). On the 3rd day after spraying, the state of growth of the goosegrass was visually observed, and the growth inhibition rate (%) was obtained in accordance with the evaluation standards described in the above (1) herbicidal effect test, and the results are shown in Table 11. Further, the expected value of the growth inhibition rate (%) was calculated in accordance with the Colby's formula described in the above (1) herbicidal effect test, and the results are also shown in Table 11.

[5] = system: wheat (cultivar: Norin 61); assay: (22) Plant growth promotion effect test (wheat), Italian ryegrass sown; details: 21st day after the sowing, above-ground part
Description: Upland soil was put in a 1/1,000,000 hectare pot, and seeds of Italian ryegrass (Lolium multiflorum) were sown. When the Italian ryegrass reached 2.5 to 2.8 leaf stage, a water-based suspension containing tiafenacil as the active ingredient, prepared by a conventional method for preparing a water-based suspension, and a wettable powder containing tri-allate as the active ingredient, prepared by a conventional method for preparing a wettable powder, were diluted with water (in an amount corresponding to 200 liter per hectare) containing 0.5 vol % of an agricultural spreader (tradename: Destiny HC, manufactured by Winfield Solutions, LLC.) and sprayed by a small spray gun (model: W-101-132G, manufactured by ANEST IWATA Corporation). Seeds of wheat (cultivar: Norin 61, manufactured by Asahi Noen Seed Co., Ltd.) were sown in the pot after spraying. On the 21st day after the sowing, the above-ground part of the wheat was reaped, and its weight was measured to obtain the raw weight.

CCc1cccc(C)c1N(C(=O)CCl)[C@@H](C)COC [S-metolachlor]
Growth inhibition rate (%) Measured value ([1]; Dose 125 g/ha): 0% | Growth inhibition rate (%) Measured value ([1]; Dose 250 g/ha): 1% | Growth inhibition rate (%) Measured value ([1]; Dose 375 g/ha): 3% | Growth inhibition rate (%) Measured value ([1]; Dose 750 g/ha): 4% | Growth inhibition rate (%) Measured value ([1]; Dose 1500 g/ha): 5% | Growth inhibition rate (%) Measured value ([1]; Dose 3000 g/ha): 5% | Growth inhibition rate (%) Measured value ([2]; Dose 62.5 g/ha): 0% | Growth inhibition rate (%) Measured value ([2]; Dose 125 g/ha): 0% | Growth inhibition rate (%) Measured value ([2]; Dose 750 g/ha): 7% | Growth inhibition rate (%) Measured value ([2]; Dose 1500 g/ha): 55% | Growth inhibition rate (%) Measured value ([2]; Dose 3000 g/ha): 73%

COC[C@H](C)N(C(=O)CCl)c1c(C)csc1C [dimethenamid-P]
Raw weight (g) of forage corn ([3]; Dose 60 g/ha): 9.8 g | Raw weight (g) of forage corn ([3]; Dose 375 g/ha): 12.5 g | Raw weight (g) of forage corn ([3]; Dose 750 g/ha): 8.0 g | Growth inhibition rate (%) Measured value ([4]; Dose 60 g/ha): 0% | Growth inhibition rate (%) Measured value ([4]; Dose 375 g/ha): 0% | Growth inhibition rate (%) Measured value ([4]; Dose 750 g/ha): 0%

CCOCCN(C(=O)CCl)C(=C(C)C)c1ccccc1 [pethoxamid]
Growth inhibition rate (%) Measured value ([4]; Dose 93.8 g/ha): 0% | Growth inhibition rate (%) Measured value ([4]; Dose 375 g/ha): 0% | Growth inhibition rate (%) Measured value ([4]; Dose 750 g/ha): 0%

COC(=O)CCNC(=O)C(C)Sc1cc(-n2c(=O)cc(C(F)(F)F)n(C)c2=O)c(F)cc1Cl (stereo not drawn) [tiafenacil]
Raw weight (g) of forage corn ([3]; Dose 6.25 g/ha): 12.1 g | Growth inhibition rate (%) Measured value ([1]; Dose 12.5 g/ha): 75% | Growth inhibition rate (%) Measured value ([1]; Dose 25 g/ha): 83% | Raw weight (g) of wheat ([5]; Dose 3 g/ha): 2.2 g | Growth inhibition rate (%) Measured value ([2]; Dose 12.5 g/ha): 30% | Growth inhibition rate (%) Measured value ([4]; Dose 6.25 g/ha): 77%

CC(C)N(C(=O)SCC(Cl)=C(Cl)Cl)C(C)C [tri-allate]
Raw weight (g) of wheat ([5]; Dose 200 g/ha): 2.3 g | inhibition at 75 g/ha ([4]; Eleusine indica, Dose 75 g/ha, read-out: Growth inhibition rate (%) Measured value): 0% | inhibition at 625 g/ha ([4]; Eleusine indica, Dose 625 g/ha, read-out: Growth inhibition rate (%) Measured value): 0% | inhibition at 1250 g/ha ([4]; Eleusine indica, Dose 1250 g/ha, read-out: Growth inhibition rate (%) Measured value): 5%
